The values that follow come from patent publication US12440495B2, “Combination therapy for treatment of myeloproliferative neoplasms” (Incyte Corporation, priority 2020, dated 2025).

One assay relates to SET-2 cells. Nature of the assay: SET-2 xenograft model. The settings on record: for tumor growth inhibition: Compound 1 10 mg/kg QD, or both, oral.
The test system of assay [1] is MPLW515L expressing bone marrow. Put plainly: MPLW515L mouse model of MPN. The conditions noted are these: Compound 1 10 mg/kg QD, ruxolitinib 60 mg/kg BID, or both; oral, 14 days.
For the next assay, the system named is myelofibrosis. The settings on record: ruxolitinib monotherapy in clinical trials; cited from earlier work.

Turning to `N#CC[C@H](C1CCCC1)n1cc(-c2ncnc3[nH]ccc23)cn1` [ruxolitinib, (3R)-3-cyclopentyl-3-[4-(7H-pyrrolo[2,3-d]pyrimidin-4-yl)-1H-pyrazol-1-yl]propanenitrile], in the assay on SET-2 cells (ruxolitinib 30 mg/kg BID, 14 days), the tumor growth inhibition entry is recorded as “significantly inhibited tumor growth”. Besides, the tumor growth inhibition result in the assay on SET-2 cells (ruxolitinib 60 mg/kg BID, 11 days) is listed as “significant tumor growth inhibition”. In the assay on SET-2 cells (table head: ruxolitinib 60 mg/kg BID, Compound 1 10 mg/kg QD, combination), the “Fa (tumor growth inhibition level), SET-2” value was 0.44. In addition, in assay [1], the spleen size result was “able to reduce spleen size” and the “white blood cell count” value is reported as “more profound effect on white blood cell count reduction than Compound 1”. In addition, the “reduction in spleen size” value in the assay on myelofibrosis is “about 35%”.
